PubChem BioAssay AID2060486 (Molecular Pharmacology Branch, DTP, NCI, 2025)

System: IGROV1 complex spheroids (HUVEC, MSC), viability % test/control
Assay: Anticancer human tumor IGROV1 cell line growth inhibition [GQUAD];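 also: spheroids exposed to compounds for 7 days before readout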;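 as to viability, T/C: 100% = DMSO vehicle control viability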
Conditions: for IC50: curve of first compound; for viability, T/C: stronger effect = lower value
Summary of the method: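 Multi-cell-type spheroids of tumor cells with HUVEC and mesenchymal stem cells, treated with drug combinations. Concentrations descend in half-log steps from near clinical Cmax, or from 10 microM where Cmax is unknown; viability read-out.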

[1] = second compound 0.0316 µM, first compound 0.0316 µM
[2] = second compound 0.0316 µM, first compound 0.1 µM
[3] = second compound 0.0316 µM, first compound 0.316 µM
[4] = second compound 0.0316 µM, first compound 1 µM
[5] = second compound 0.0316 µM, first compound 3.16 µM
[6] = second compound 0.0316 µM, first compound 10 µM
[7] = second compound 0.1 µM, first compound 0.0316 µM
[8] = second compound 0.1 µM, first compound 0.1 µM
[9] = second compound 0.1 µM, first compound 0.316 µM
[10] = second compound 0.1 µM, first compound 1 µM
[11] = second compound 0.1 µM, first compound 3.16 µM
[12] = second compound 0.1 µM, first compound 10 µM
[13] = second compound 0.316 µM, first compound 0.0316 µM
[14] = second compound 0.316 µM, first compound 0.1 µM
[15] = second compound 0.316 µM, first compound 0.316 µM
[16] = second compound 0.316 µM, first compound 1 µM
[17] = second compound 0.316 µM, first compound 3.16 µM
[18] = second compound 0.316 µM, first compound 10 µM
[19] = second compound 1 µM, first compound 0.0316 µM
[20] = second compound 1 µM, first compound 0.1 µM
[21] = second compound 1 µM, first compound 0.316 µM
[22] = second compound 1 µM, first compound 1 µM
[23] = second compound 1 µM, first compound 3.16 µM
[24] = second compound 1 µM, first compound 10 µM
[25] = second compound 3.16 µM, first compound 0.0316 µM
[26] = second compound 3.16 µM, first compound 0.1 µM
[27] = second compound 3.16 µM, first compound 0.316 µM
[28] = second compound 3.16 µM, first compound 1 µM
[29] = second compound 3.16 µM, first compound 3.16 µM
[30] = second compound 3.16 µM, first compound 10 µM
[31] = second compound 10 µM, first compound 0.0316 µM
[32] = second compound 10 µM, first compound 0.1 µM
[33] = second compound 10 µM, first compound 0.316 µM
[34] = second compound 10 µM, first compound 1 µM
[35] = second compound 10 µM, first compound 3.16 µM
[36] = second compound 10 µM, first compound 10 µM

For `C=CC(=O)N1CCN(c2nc(=O)n(-c3c(C)ccnc3C(C)C)c3nc(-c4c(O)cccc4F)c(F)cc23)C(C)C1` (stereo unspecified) + Cc1[nH]c2ccc(F)cc2c1-c1nc2c3cccnc3c3ncccc3c2[nH]1, the IC50 (second compound 0.0316 µM) was greater than 10000 nM, the IC50 (second compound 0.1 µM) was greater than 10000 nM and the IC50 (second compound 0.316 µM) was greater than 10000 nM. For the same compound, the IC50 (second compound 1 µM) was less than 31.6 nM, the IC50 (second compound 3.16 µM) was less than 31.6 nM and the IC50 (second compound 10 µM) was less than 31.6 nM. It also gave a viability, T/C [1] of 104%, a viability, T/C [2] of 70.5% and a viability, T/C [3] of 103%. The viability, T/C [4] was 45.8%, the viability, T/C [5] was 94.8% and the viability, T/C [6] was 87.5%. The viability, T/C [7] was 90.2%, the viability, T/C [8] was 89.7% and the viability, T/C [9] was 80.6%. It also gave a viability, T/C [10] of 75.1%, a viability, T/C [11] of 92.8% and a viability, T/C [12] of 99.2%. It also gave a viability, T/C [13] of 70.5%, a viability, T/C [14] of 93.9% and a viability, T/C [15] of 76.2%. For the same compound, the viability, T/C [16] was 78.9%, the viability, T/C [17] was 80% and the viability, T/C [18] was 56.8%. For the same compound, the viability, T/C [19] was 3.43%, the viability, T/C [20] was 3.79% and the viability, T/C [21] was 6.26%. For the same compound, the viability, T/C [22] was 4.23%, the viability, T/C [23] was 4.27% and the viability, T/C [24] was 2.01%. It also gave a viability, T/C [25] of 3.63%, a viability, T/C [26] of 4.79% and a viability, T/C [27] of 4.74%. The viability, T/C [28] was 4.03%, the viability, T/C [29] was 4.45% and the viability, T/C [30] was 2.13%. It also gave a viability, T/C [31] of 4.57%, a viability, T/C [32] of 4.39% and a viability, T/C [33] of 4.91%. It also gave a viability, T/C [34] of 5.12%, a viability, T/C [35] of 4.17% and a viability, T/C [36] of 2.46%.

Work on `CC(C)n1c(=O)n(C)c2cnc3cc(F)c(-c4ccc(OCCCN5CCCCC5)nc4)cc3c21` + Cc1[nH]c2ccc(F)cc2c1-c1nc2c3cccnc3c3ncccc3c2[nH]1 yielded an IC50 (second compound 0.0316 µM) of 3520 nM, an IC50 (second compound 0.1 µM) of 4100 nM and an IC50 (second compound 0.316 µM) of 2080 nM. For the same compound, the IC50 (second compound 1 µM) was less than 31.6 nM, the IC50 (second compound 3.16 µM) was less than 31.6 nM and the IC50 (second compound 10 µM) was less than 31.6 nM. It also gave a viability, T/C [1] of 99.9%, a viability, T/C [2] of 84.8% and a viability, T/C [3] of 92.5%. The viability, T/C [4] was 69%, the viability, T/C [5] was 55.5% and the viability, T/C [6] was 18.6%. The viability, T/C [7] was 81.2%, the viability, T/C [8] was 91.8% and the viability, T/C [9] was 82.6%. It also gave a viability, T/C [10] of 62.3%, a viability, T/C [11] of 65.6% and a viability, T/C [12] of 20.5%. The viability, T/C [13] was 76.4%, the viability, T/C [14] was 88.8% and the viability, T/C [15] was 78%. The viability, T/C [16] was 59%, the viability, T/C [17] was 44.5% and the viability, T/C [18] was 12.2%. For the same compound, the viability, T/C [19] was 4%, the viability, T/C [20] was 4.91% and the viability, T/C [21] was 5.53%. For the same compound, the viability, T/C [22] was 4.22%, the viability, T/C [23] was 5.34% and the viability, T/C [24] was 3.26%. The viability, T/C [25] was 4.58%, the viability, T/C [26] was 4.72% and the viability, T/C [27] was 4.85%. The viability, T/C [28] was 5.73%, the viability, T/C [29] was 4.75% and the viability, T/C [30] was 1.86%. The viability, T/C [31] was 4.57%, the viability, T/C [32] was 6.24% and the viability, T/C [33] was 5.89%. For the same compound, the viability, T/C [34] was 5.99%, the viability, T/C [35] was 4.07% and the viability, T/C [36] was 2.35%.

Work on `CC1COCCN1c1cc(C2(O)CC3CCC(C2)O3)c2cnn(-c3ccn[nH]3)c2n1` (stereo unspecified) + Cc1[nH]c2ccc(F)cc2c1-c1nc2c3cccnc3c3ncccc3c2[nH]1 yielded an IC50 (second compound 0.0316 µM) of 37.6 nM, an IC50 (second compound 0.1 µM) of 42.3 nM and an IC50 (second compound 0.316 µM) of less than 31.6 nM. For the same compound, the IC50 (second compound 1 µM) was less than 31.6 nM, the IC50 (second compound 3.16 µM) was less than 31.6 nM and the IC50 (second compound 10 µM) was less than 31.6 nM. The viability, T/C [1] was 55.6%, the viability, T/C [2] was 18.9% and the viability, T/C [3] was 7.44%. For the same compound, the viability, T/C [4] was 4.8%, the viability, T/C [5] was 3.59% and the viability, T/C [6] was 2.02%. It also gave a viability, T/C [7] of 61%, a viability, T/C [8] of 17.7% and a viability, T/C [9] of 8.01%. For the same compound, the viability, T/C [10] was 6.5%, the viability, T/C [11] was 3.58% and the viability, T/C [12] was 1.71%. The viability, T/C [13] was 21.6%, the viability, T/C [14] was 7.64% and the viability, T/C [15] was 4.88%. For the same compound, the viability, T/C [16] was 3.7%, the viability, T/C [17] was 3.28% and the viability, T/C [18] was 1.86%. It also gave a viability, T/C [19] of 3%, a viability, T/C [20] of 3.91% and a viability, T/C [21] of 3.25%. For the same compound, the viability, T/C [22] was 3.03%, the viability, T/C [23] was 3.34% and the viability, T/C [24] was 1.4%. The viability, T/C [25] was 3.59%, the viability, T/C [26] was 4.2% and the viability, T/C [27] was 3.24%. The viability, T/C [28] was 3.06%, the viability, T/C [29] was 3.02% and the viability, T/C [30] was 1.16%. The viability, T/C [31] was 3.5%, the viability, T/C [32] was 2.96% and the viability, T/C [33] was 4.38%. For the same compound, the viability, T/C [34] was 2.77%, the viability, T/C [35] was 3% and the viability, T/C [36] was 1.15%.
